Columns and labels:
[1] = target: T1, isolated recombinant JAK2 kinase domain (Homo sapiens, UniProt O60674); test: JAK enzyme assay, JAK2 kinase domain (Caliper LabChip); format: biochemical; details: 0.2 nM JAK2, ATP 25 μM, Morrison tight binding model
T1 construct: isolated recombinant JAK1 and JAK2 kinase domain
Method: (§1) JAK Enzyme Assays were Carried Out as Follows:
(§2) The activity of the isolated recombinant JAK1 and JAK2 kinase domain was measured by monitoring phosphorylation of a peptide derived from JAK3 (Val-Ala-Leu-Val-Asp-Gly-Tyr-Phe-Arg-Leu-Thr-Thr, fluorescently labeled on the N-terminus with 5-carboxyfluorescein) using the Caliper LabChip® technology (Caliper Life Sciences, Hopkinton, Mass.). […] Reactions were incubated at 22 °C in 384-well polypropylene microtiter plates for 30 minutes and then stopped by addition of 25 μL of an EDTA containing solution (100 mM HEPES buffer (pH 7.2), 0.015% Brij-35, 150 mM EDTA), resulting in a final EDTA concentration of 50 mM. After termination of the kinase reaction, the proportion of phosphorylated product was determined as a fraction of total peptide substrate using the Caliper LabChip® 3000 according to the manufacturer's specifications. Ki values were then determined using the Morrison tight binding model (Morrison, J. F., Biochim. Biophys. Acta. 185:269-296 (1969); William, J. W. and Morrison, J. F., Meth. Enzymol., 63:437-467 (1979)) modified for ATP-competitive inhibition [Ki=Ki,app/(1+[ATP]/Km,app)].

[2] = system: JAK1-dependent STAT6 phosphorylation downstream of IL-13 stimulation in BEAS-2B cells; test: JAK1 pathway assay in cell lines: IL-13 p-STAT6 BEAS-2B; format: cell-based; details: BEAS-2B human bronchial epithelial cells, 1 hr compound, IL-13 15 min, MSD readout
Method: JAK1 Pathway Assay in Cell Lines was Carried Out as Follows:
Inhibitor potency (EC50) was determined in cell-based assays designed to measure JAK1 dependent STAT phosphorylation. As noted above, inhibition of IL-4, IL-13, and IL-9 signalling by blocking the Jak/Stat signaling pathway can alleviate asthmatic symptoms in pre-clinical lung inflammation models (Mathew et al., 2001, J Exp Med 193(9): 1087-1096; Kudlacz et. al., 2008, Eur J. Pharmacol 582(1-3): 154-161).
In one assay approach, TF-1 human erythroleukemia cells obtained from the American Type Culture Collection (ATCC; Manassas, Va.) were used to measure JAK1-dependent STAT6 phosphorylation downstream of IL-13 stimulation. Prior to use in the assays, TF-1 cells were starved of GM-CSF overnight in OptiMEM medium (Life Technologies, Grand Island, N.Y.) supplemented with 0.5% charcoal/dextran stripped fetal bovine serum (FBS), 0.1 mM non-essential amino acids (NEAA), and 1 mM sodium pyruvate. The assays were run in 384-well plates in serum-free OptiMEM medium using 300,000 cells per well. In a second assay approach, BEAS-2B human bronchial epithelial cells obtained from ATCC were plated at 100,000 cells per well of a 96-well plate one day prior to the experiment. The BEAS-2B assay was run in complete growth medium (bronchial epithelial basal medium plus bulletkit; Lonza; Basel, Switzerland).
Test compounds were serially diluted 1:2 in DMSO and then diluted 1:50 in medium just before use. Diluted compounds were added to the cells, for a final DMSO concentration of 0.2%, and incubated for 30 mi (for the TF-1 assay) or 1 hr (for the BEAS-2B assay) at 37 QC. Then, cells were stimulated with human recombinant cytokine at their respective EC90 concentrations, as previously determined for each individual lot. Cells were stimulated with IL-13 (R&D Systems, Minneapolis, Minn.) for 15 min at 37 °C. The TF-1 cell reactions were stopped by the direct addition of 10× lysis buffer (Cell Signaling Technologies, Danvers, Mass.), whereas the BEAS-2B cell incubations were halted by the removal of medium and addition of 1× lysis buffer. The resultant samples were frozen in the plates at −80 °C. Compound mediated inhibition of STAT6 phosphorylation was measured in the cell lysates using MesoScale Discovery (MSD) technology (Gaithersburg, Md.). EC50 values were determined as the concentration of compound required for 50% inhibition of STAT phosphorylation relative to that measured for the DMSO control.

[3] = target: T2, isolated recombinant JAK1 kinase domain (Homo sapiens, UniProt P23458); test: JAK enzyme assay, JAK1 kinase domain (Caliper LabChip); format: biochemical; details: 1.5 nM JAK1, ATP 25 μM, Morrison tight binding model
T2 construct: isolated recombinant JAK1 and JAK2 kinase domain
Method: as §1, §2

T1 sequence (O60674 849-1124 limits assumed): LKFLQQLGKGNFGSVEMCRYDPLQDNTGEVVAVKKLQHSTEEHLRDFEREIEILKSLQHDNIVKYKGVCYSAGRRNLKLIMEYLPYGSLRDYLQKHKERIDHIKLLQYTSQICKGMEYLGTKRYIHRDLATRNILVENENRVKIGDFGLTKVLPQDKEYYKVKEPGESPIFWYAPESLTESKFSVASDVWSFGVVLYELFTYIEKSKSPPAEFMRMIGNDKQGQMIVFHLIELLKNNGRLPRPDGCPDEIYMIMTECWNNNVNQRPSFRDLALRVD
T2 sequence (P23458 875-1153 limits assumed): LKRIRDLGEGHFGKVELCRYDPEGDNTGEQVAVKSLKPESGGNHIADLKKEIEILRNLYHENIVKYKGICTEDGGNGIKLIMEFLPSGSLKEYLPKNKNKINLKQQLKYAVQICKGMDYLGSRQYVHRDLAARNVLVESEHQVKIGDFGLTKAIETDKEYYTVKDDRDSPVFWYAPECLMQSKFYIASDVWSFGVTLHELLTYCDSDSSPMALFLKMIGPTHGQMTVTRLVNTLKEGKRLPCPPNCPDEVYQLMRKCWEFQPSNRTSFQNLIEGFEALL

Compound | Ki [1] | Ki [3] | EC50 [2]
CN1CCN(C(=O)Cc2ccc(Nc3nc4c(N5CC(CC#N)(n6cc(C(F)(F)F)cn6)C5)cccn4n3)cc2)CC1 [Example 116, formic acid;2-[1-[2-[4-[2-(4-methylpiperazin-1-yl)-2-oxo-ethyl]anilino]-[1,2,4]triazolo[1,5-a]pyridin-8-yl]-3-[4-(trifluoromethyl)pyrazol-1-yl]azetidin-3-yl]acetonitrile] | 4 nM | 0.6 nM | 90 nM
CCc1cnn(C2(CC#N)CN(c3cccn4nc(Nc5cnn(CC(=O)N6CCC(NCC7(C#N)CC7)CC6)c5)nc34)C2)c1 [Example 4, 1-[[(1-[2-[4-([8-[3-(cyanomethyl)-3-(4-ethyl-1H-pyrazol-1-yl)azetidin-1-yl]-[1,2,4]triazolo[1,5-a]pyridin-2-yl]amino)-1H-pyrazol-1-yl]acetyl]piperidin-4-yl)amino]methyl]cyclopropane-1-carbonitrile] | 4.6 nM | 0.6 nM | 39 nM
N#CCC1(n2cc(C(F)(F)F)cn2)CN(c2cccn3nc(Nc4ccc(C(=O)N5CCN(C6COC6)CC5)cc4)nc23)C1 [Example 103, 2-[1-[2-[4-[4-(oxetan-3-yl)piperazine-1-carbonyl]anilino]-[1,2,4]triazolo[1,5-a]pyridin-8-yl]-3-[4-(trifluoromethyl)pyrazol-1-yl]azetidin-3-yl]acetonitrile] | 1.7 nM | 0.3 nM | 33 nM
CN1CCN(C(=O)Cn2cc(Nc3nc4c(N5CC(CC#N)(n6cc(C7CC7)cn6)C5)cccn4n3)cn2)CC1 [Example 43, 2-[3-(4-cyclopropylpyrazol-1-yl)-1-[2-[[1-[2-(4-methylpiperazin-1-yl)-2-oxo-ethyl]pyrazol-4-yl]amino]-[1,2,4]triazolo[1,5-a]pyridin-8-yl]azetidin-3-yl]acetonitrile] | 4 nM | 0.6 nM | 48 nM
N#CCC1(n2cc(C(F)(F)F)cn2)CN(c2cccn3nc(Nc4cccc(C(=O)N5CCC(N6CCOCC6)CC5)c4)nc23)C1 [Example 112, formic acid;2-[1-[2-[3-(4-morpholinopiperidine-1-carbonyl)anilino]-[1,2,4]triazolo[1,5-a]pyridin-8-yl]-3-[4-(trifluoromethyl)pyrazol-1-yl]azetidin-3-yl]acetonitrile] | 4.6 nM | 1 nM | 69 nM
CN1CCN(C(=O)Cn2cc(Nc3nc4c(N5CC(CC#N)(N6CCOCC6)C5)cccn4n3)cn2)CC1 [Example 8] | 1.5 nM | 0.3 nM | 12 nM
N#CCC1(n2cc(SC(F)F)cn2)CN(c2cccn3nc(Nc4cn[nH]c4)nc23)C1 [Example 151, 2-[3-[4-(difluoromethylsulfanyl)pyrazol-1-yl]-1-[2-(1H-pyrazol-4-ylamino)-[1,2,4]triazolo[1,5-a]pyridin-8-yl]azetidin-3-yl]acetonitrile] | 1.4 nM | 0.1 nM | 42 nM
CN1CCN(C(=O)Cn2cc(Nc3nc4c(N5CC(CC#N)(N6CCN(C)CC6)C5)cccn4n3)cn2)CC1 [Example 9, 2-[3-(4-methylpiperazin-1-yl)-1-[2-[[1-[2-(4-methylpiperazin-1-yl)-2-oxo-ethyl]pyrazol-4-yl]amino]-[1,2,4]triazolo[1,5-a]pyridin-8-yl]azetidin-3-yl]acetonitrile] | 2.5 nM | 0.6 nM | 34 nM
CCc1cnn(C2(CC#N)CN(c3cccn4nc(Nc5ccc(CC(=O)N6CCN(C)CC6)nc5)nc34)C2)c1 [Example 74] | 1.8 nM | 0.4 nM | 20 nM
CN1CCN(C(=O)Cn2cc(Nc3nc4c(N5CC(CC#N)(n6cc(CNCC(F)(F)F)cn6)C5)cccn4n3)cn2)CC1 [Example 48] | 1.5 nM | 0.5 nM | 33 nM
Cc1cnn(C2(CC#N)CN(c3cccn4nc(Nc5cnn(CC(=O)N6CCN(C)CC6)c5)nc34)C2)c1 [Example 10] | 1.5 nM | 0.4 nM | 18 nM

Second part, led by results:

Ki [1] | Ki [3] | Compound | EC50 [2]
0.8 nM | 0.5 nM | N#CCC1(n2cc(C(F)(F)F)cn2)CN(c2cccn3nc(Nc4cnn(CC(=O)N5CCN(C6CCOCC6)CC5)c4)nc23)C1 [Example 98, 2-[1-[2-[[1-[2-oxo-2-(4-tetrahydropyran-4-ylpiperazin-1-yl)ethyl]pyrazol-4-yl]amino]-[1,2,4]triazolo[1,5-a]pyridin-8-yl]-3-[4-(trifluoromethyl)pyrazol-1-yl]azetidin-3-yl]acetonitrile] | 32 nM
1.3 nM | 0.3 nM | CCc1cnn(C2(CC#N)CN(c3cccn4nc(Nc5ccc6c(c5)CCN(C5CCOCC5)C6)nc34)C2)c1 [Example 57, 2-[3-(4-ethylpyrazol-1-yl)-1-[2-[(2-tetrahydropyran-4-yl-3,4-dihydro-1H-isoquinolin-6-yl)amino]-[1,2,4]triazolo[1,5-a]pyridin-8-yl]azetidin-3-yl]acetonitrile] | 12 nM
0.4 nM | 0.4 nM | CCc1cnn(C2(CC#N)CN(c3cccn4nc(Nc5ccc6c(c5)CCN([C@@H]5CCOC5)C6)nc34)C2)c1 (stereo in doubt) [Example 61, 2-[3-(4-ethylpyrazol-1-yl)-1-[2-[[2-[rac-(3R)-tetrahydrofuran-3-yl]-3,4-dihydro-1H-isoquinolin-6-yl]amino]-[1,2,4]triazolo[1,5-a]pyridin-8-yl]azetidin-3-yl]acetonitrile] | 8 nM
0.2 nM | 0.2 nM | Cc1ccccc1-c1cnn(C2(CC#N)CN(c3cccn4nc(Nc5cnn(CC(=O)N6CCN(C)CC6)c5)nc34)C2)c1 [Example 63] | 13 nM
1.4 nM | 0.4 nM | COc1cnn(C2(CC#N)CN(c3cccn4nc(Nc5cnn(CC(=O)N6CCN(C)CC6)c5)nc34)C2)c1 [Example 28, 2-[3-(4-methoxypyrazol-1-yl)-1-[2-[[1-[2-(4-methylpiperazin-1-yl)-2-oxo-ethyl]pyrazol-4-yl]amino]-[1,2,4]triazolo[1,5-a]pyridin-8-yl]azetidin-3-yl]acetonitrile] | 54 nM
0.1 nM | 0.1 nM | CC(C)c1cnn(C2(CC#N)CN(c3cccn4nc(Nc5cn[nH]c5)nc34)C2)c1 [Example 141, 2-[3-(4-isopropylpyrazol-1-yl)-1-[2-(1H-pyrazol-4-ylamino)-[1,2,4]triazolo[1,5-a]pyridin-8-yl]azetidin-3-yl]acetonitrile] | 9 nM
1.1 nM | 0.5 nM | CCc1cnn(C2(CC#N)CN(c3cccn4nc(Nc5ccc(C(=O)NCCCN6CCOCC6)cc5)nc34)C2)c1 [Example 67, 4-[[8-[3-(cyanomethyl)-3-(4-ethylpyrazol-1-yl)azetidin-1-yl]-[1,2,4]triazolo[1,5-a]pyridin-2-yl]amino]-N-(3-morpholinopropyl)benzamide] | 167 nM
1.1 nM | 0.4 nM | N#CCC1(n2cc(Br)cn2)CN(c2cccn3nc(Nc4cnn(CC(=O)N5CCC(N6CCOCC6)CC5)c4)nc23)C1 [Example 130, 2-[3-(4-bromopyrazol-1-yl)-1-[2-[[1-[2-(4-morpholino-1-piperidyl)-2-oxo-ethyl]pyrazol-4-yl]amino]-[1,2,4]triazolo[1,5-a]pyridin-8-yl]azetidin-3-yl]acetonitrile] | 117 nM
